Test results reported in ChEMBL document CHEMBL4130434, “Antineoplastic Agents. 604. The Path of Quinstatin Derivatives to Antibody Drug Conjugates” (2017).
*1 amine or outer side, *2 acyl side, *3 side chain or, on linkers, in order; H or OH if unused. Where a SMILES comes first, the peptide text is derived from it. [ ]: non-standard residue; d: D form. The star is where a group is joined. Dolaproine = CO[C@@H]([C@@H]1CCCN1)[C@@H](C)C(=O)O; Hexanoyl(6-maleimido) = O=C1C=CC(=O)N1CCCCCC(=O)*; Dil = CC[C@H](C)[C@H](NC)[C@@H](CC(=O)O)OC; PABC = O=C(OCc1ccc(N[*:1])cc1)[*:2]; Cit = NC(=O)NCCC[C@H](N)C(=O)O; NMeV = CN[C@H](C(=O)O)C(C)C; X1 = c1cnc2c(CCN*)cccc2c1; X2 = c1cc(CCN*)c2cccnc2c1; X3 = c1ccc2c(CCN*)ccnc2c1; X4 = c1ccc2nc(CCN*)ccc2c1

Experiments:
Type in all cases: functional
NCI-H460 = assay: Growth inhibition of human NCI-H460 cells after 48 hrs by SRB assay; conditions: NCI-H460, 48 h
DU-145 = assay: Growth inhibition of human DU145 cells after 48 hrs by SRB assay; conditions: DU-145, 48 h
SF-268 = assay: Growth inhibition of human SF268 cells after 48 hrs by SRB assay; conditions: SF-268, 48 h
MCF7 = assay: Growth inhibition of human MCF7 cells after 48 hrs by SRB assay; conditions: MCF7, 48 h
BXPC-3 = assay: Growth inhibition of human BxPC3 cells after 48 hrs by SRB assay; conditions: BXPC-3, 48 h
KM-20L2 = assay: Growth inhibition of human KM20L2 cells after 48 hrs by SRB assay; conditions: KM-20L2, 48 h

| Structure (SMILES) | GI50 (NCI-H460) | GI50 (DU-145) | GI50 (MCF7) | GI50 (BXPC-3) | GI50 (SF-268) | GI50 (KM-20L2) |
| --- | --- | --- | --- | --- | --- | --- |
| CC[C@H](C)[C@@H]([C@@H](CC(=O)N1CCC[C@H]1[C@H](OC)[C@@H](C)C(=O)NCCc1ccnc2ccccc12)OC)N(C)C(=O)[C@@H](NC(=O)[C@@H](NC)C(C)C)C(C)C (H-[NMeV]V[Dil][Dolaproine]-X3) | 67.7 nM | 0.135 nM | 0.149 nM | 67.7 nM | 0.176 nM | 0.596 nM |
| CC[C@H](C)[C@@H]([C@@H](CC(=O)N1CCC[C@H]1[C@H](OC)[C@@H](C)C(=O)NCCc1ccc2ccccc2n1)OC)N(C)C(=O)[C@@H](NC(=O)[C@@H](NC)C(C)C)C(C)C (H-[NMeV]V[Dil][Dolaproine]-X4) | 392 nM | 12.2 nM | 4.06 nM | 81.2 nM | 1.22 nM | 3.24 nM |
| CC[C@H](C)[C@@H]([C@@H](CC(=O)N1CCC[C@H]1[C@H](OC)[C@@H](C)C(=O)NCCc1cccc2ncccc12)OC)N(C)C(=O)[C@@H](NC(=O)[C@H](C(C)C)N(C)C(=O)OCc1ccc(NC(=O)[C@H](CCCNC(N)=O)NC(=O)[C@@H](NC(=O)CCCCCN2C(=O)C=CC2=O)C(C)C)cc1)C(C)C ({Hexanoyl(6-maleimido)}-V[Cit][PABC][NMeV]V[Dil][Dolaproine]-X2) | 247 nM | 4.49 nM | 5.23 nM | 299 nM | 2.99 nM | 11.2 nM |
| CC[C@H](C)[C@@H]([C@@H](CC(=O)N1CCC[C@H]1[C@H](OC)[C@@H](C)C(=O)NCCc1ccnc2ccccc12)OC)N(C)C(=O)[C@@H](NC(=O)[C@H](C(C)C)N(C)C(=O)OCc1ccc(NC(=O)[C@H](CCCNC(N)=O)NC(=O)[C@@H](NC(=O)CCCCCN2C(=O)C=CC2=O)C(C)C)cc1)C(C)C ({Hexanoyl(6-maleimido)}-V[Cit][PABC][NMeV]V[Dil][Dolaproine]-X3) | 2620 nM | 31.4 nM | 30.7 nM | 1570 nM | 29.9 nM | 38.9 nM |
| CC[C@H](C)[C@@H]([C@@H](CC(=O)N1CCC[C@H]1[C@H](OC)[C@@H](C)C(=O)N[C@@H](Cc1ccccc1)c1nccs1)OC)N(C)C(=O)[C@@H](NC(=O)[C@H](C(C)C)N(C)C)C(C)C [DOLASTATIN-10] | 0.229 nM | 0.007 nM | 0.005 nM | 0.051 nM | 0.006 nM | 0.01 nM |

Further lines, with some results ahead:

| GI50 (NCI-H460) | GI50 (DU-145) | GI50 (MCF7) | GI50 (BXPC-3) | Structure (SMILES) | GI50 (SF-268) | GI50 (KM-20L2) |
| --- | --- | --- | --- | --- | --- | --- |
| 14.9 nM | 0.07 nM | 0.06 nM | 11.5 nM | CC[C@H](C)[C@@H]([C@@H](CC(=O)N1CCC[C@H]1[C@H](OC)[C@@H](C)C(=O)NCCc1cccc2cccnc12)OC)N(C)C(=O)[C@@H](NC(=O)[C@@H](NC)C(C)C)C(C)C (H-[NMeV]V[Dil][Dolaproine]-X1) | 0.06 nM | 0.203 nM |
| 37.9 nM | 0.812 nM | 0.298 nM | 27.1 nM | CC[C@H](C)[C@@H]([C@@H](CC(=O)N1CCC[C@H]1[C@H](OC)[C@@H](C)C(=O)NCCc1cccc2ncccc12)OC)N(C)C(=O)[C@@H](NC(=O)[C@@H](NC)C(C)C)C(C)C (H-[NMeV]V[Dil][Dolaproine]-X2) | 0.311 nM | 0.582 nM |
| 449 nM | 5.98 nM | 15 nM | 449 nM | CC[C@H](C)[C@@H]([C@@H](CC(=O)N1CCC[C@H]1[C@H](OC)[C@@H](C)C(=O)NCCc1cccc2cccnc12)OC)N(C)C(=O)[C@@H](NC(=O)[C@H](C(C)C)N(C)C(=O)OCc1ccc(NC(=O)[C@H](CCCNC(N)=O)NC(=O)[C@@H](NC(=O)CCCCCN2C(=O)C=CC2=O)C(C)C)cc1)C(C)C ({Hexanoyl(6-maleimido)}-V[Cit][PABC][NMeV]V[Dil][Dolaproine]-X1) | 3.52 nM | 23.9 nM |
